Values quoted from earlier work in patent US6346511B1, “Pharmaceutical composition comprising cyclosporin” (Panacea Biotec Limited, priority 1997, dated 2002).

Test system: normal epithelial tissue and Peyer's patch tissue of guinea pigs
Settings: in vitro, compared to the commercially available drinking solution

Substance: Choleic acid
- factor by which absorption of Cyclosporine was raised: 5-6
